Experimental data reported in patent US20230265151A1, “GIP/GLP1 CO-AGONIST COMPOUNDS” (priority 2020, published 2023).
Like-named read-outs stand apart in the source and are kept apart here. *1 amine or outer side, *2 acyl side, *3 side chain or, on linkers, in order; H or OH if unused. Where a SMILES comes first, the peptide text is derived from it. Side-chain parts run from the residue outwards. [ ]: non-standard residue; d: D form. The star is where a group is joined. αMePhe(2-F) = C[C@](N)(Cc1ccccc1F)C(=O)O; γGlu = O=C(O)[C@H](CCC(=O)[*:2])N[*:1]; C14 diacid = O=C(O)CCCCCCCCCCCCC(=O)*; αMeY = C[C@](N)(Cc1ccc(O)cc1)C(=O)O; 4Pal = N[C@@H](Cc1ccncc1)C(=O)O; αMeL = CC(C)C[C@](C)(N)C(=O)O; Lauroyl = CCCCCCCCCCCC(=O)*; Orn = NCCC[C@H](N)C(=O)O; AEEA = NCCOCCOCC(=O)O; Aib = CC(C)(N)C(=O)O

What was measured:
Assay type in all cases: cell-based
hGCGR = molecular target: T1, hGCGR (Homo sapiens, UniProt P47871); test: Functional cAMP formation (HTRF) in HEK-293 clonal cells expressing hGCGR, 0.1% bovine casein, without or with 1.0% human serum albumin; conditions: geometric mean, read-out: hGCGR EC50, nM (SEM, n)
T1 construct: expressed in transfected cells
Outline: (§1)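 Cells were stimulated with peptide for 30 min at 37° C, then lysed in buffer carrying cAMP-d2 and anti-cAMP Eu3+-cryptate for a competitive HTRF read after at least 60 min at room temperature. The 665/620 nm ratio was converted to nM cAMP against a standard curve.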

hGIPR = molecular target: T2, hGIPR (Homo sapiens, UniProt P48546); test: Functional cAMP formation (HTRF) in HEK-293 clonal cells expressing hGIPR, 0.1% bovine casein, without or with 1.0% human serum albumin; conditions: for EC50: geometric mean, read-out: hGIPR EC50, nM (SEM, n); for Emax: read-out: hGIPR Emax, % ± SEM
T2 construct: expressed in transfected cells
T2 sequence (P48546 22-466): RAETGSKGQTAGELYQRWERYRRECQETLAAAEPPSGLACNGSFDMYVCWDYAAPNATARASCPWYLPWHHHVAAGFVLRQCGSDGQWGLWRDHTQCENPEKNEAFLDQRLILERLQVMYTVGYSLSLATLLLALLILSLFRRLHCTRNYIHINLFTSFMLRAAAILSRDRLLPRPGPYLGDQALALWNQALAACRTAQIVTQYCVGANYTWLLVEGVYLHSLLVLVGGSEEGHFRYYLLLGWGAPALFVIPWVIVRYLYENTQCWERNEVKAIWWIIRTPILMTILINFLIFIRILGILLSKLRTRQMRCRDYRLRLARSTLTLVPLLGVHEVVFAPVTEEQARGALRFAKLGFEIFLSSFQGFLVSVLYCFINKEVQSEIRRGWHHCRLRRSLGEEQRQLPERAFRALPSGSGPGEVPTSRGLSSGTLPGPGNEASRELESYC
Outline: as §1

hGLP-1R = hGLP-1R (Homo sapiens, UniProt P43220); test: Functional cAMP formation (HTRF) in HEK-293 clonal cells expressing hGLP-1R, 0.1% bovine casein, without or with 1.0% human serum albumin; design: expressed in transfected cells; conditions: for EC50: geometric mean, read-out: hGLP-1R EC50, nM (SEM, n); for Emax: read-out: hGLP-1R Emax, % ± SEM
Outline: as §1

[1] = 0.1% bovine casein and 1.0% human serum albumin, 37° C.
[2] = cAMP, 37° C., 0.1% bovine casein (no human serum albumin)
[3] = HEK293, cAMP, 37° C., 0.1% bovine casein, percent of maximal response to GLP-1(7-36)NH2, arithmetic mean
[4] = cAMP, incubated at 37° C., 0.1% bovine casein (no human serum albumin)
[5] = HEK293, 0.1% bovine casein and 1.0% human serum albumin, 37° C., percent of maximal response to GLP-1(7-36)NH2

hGLP-1R, sequence (P43220 24-463): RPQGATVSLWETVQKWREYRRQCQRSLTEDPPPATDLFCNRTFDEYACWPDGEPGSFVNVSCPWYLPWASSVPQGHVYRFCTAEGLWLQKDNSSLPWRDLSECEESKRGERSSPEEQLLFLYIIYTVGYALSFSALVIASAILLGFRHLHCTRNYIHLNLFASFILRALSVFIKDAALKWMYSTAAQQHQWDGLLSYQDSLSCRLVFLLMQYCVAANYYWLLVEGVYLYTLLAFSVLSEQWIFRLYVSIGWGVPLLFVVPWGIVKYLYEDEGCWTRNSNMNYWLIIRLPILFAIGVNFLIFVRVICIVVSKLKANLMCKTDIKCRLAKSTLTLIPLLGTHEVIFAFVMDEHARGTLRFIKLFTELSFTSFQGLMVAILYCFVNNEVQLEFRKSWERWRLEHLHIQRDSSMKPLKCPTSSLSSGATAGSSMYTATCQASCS
T1 sequence (P47871 26-477): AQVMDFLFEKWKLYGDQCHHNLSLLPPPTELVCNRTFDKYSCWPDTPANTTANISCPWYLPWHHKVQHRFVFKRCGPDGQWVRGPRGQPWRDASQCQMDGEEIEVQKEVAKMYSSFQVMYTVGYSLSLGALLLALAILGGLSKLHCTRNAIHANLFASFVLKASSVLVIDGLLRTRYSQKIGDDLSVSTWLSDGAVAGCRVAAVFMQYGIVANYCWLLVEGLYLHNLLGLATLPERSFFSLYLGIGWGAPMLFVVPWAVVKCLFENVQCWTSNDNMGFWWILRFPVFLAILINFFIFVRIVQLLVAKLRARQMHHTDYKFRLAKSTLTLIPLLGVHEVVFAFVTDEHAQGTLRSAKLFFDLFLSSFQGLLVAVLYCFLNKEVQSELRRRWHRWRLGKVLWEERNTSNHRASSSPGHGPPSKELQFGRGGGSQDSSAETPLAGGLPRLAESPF

EC50 (hGIPR; [1]) [nM] | EC50 (hGLP-1R; [1]) [nM] | Compound | EC50 (hGCGR; [1]) [nM] | EC50 (hGCGR; [2]) [nM] | EC50 (hGIPR; [2]) [nM] | Emax (hGLP-1R; [3]) [%] | EC50 (hGLP-1R; [2]) [nM] | EC50 (hGCGR; [4]) [nM] | Emax (hGIPR; HEK293, percent of maximal response to GIP(1-42)NH2, 37° C., 0.1% bovine casein, arithmetic mean) [%] | Emax (hGLP-1R; [5]) [%] | Emax (hGIPR; HEK293, 0.1% bovine casein and 1.0% human serum albumin, 37° C., percent of maximal response to GIP(1-42)NH2) [%] | EC50 (hGIPR; [4]) [nM] | Emax (hGLP-1R; HEK293, percent of maximal response to GLP-1(7-36)NH2, 37° C., 0.1% bovine casein, arithmetic mean) [%] | EC50 (hGLP-1R; [4]) [nM] | Emax (hGIPR; HEK293, cAMP, 37° C., 0.1% bovine casein, percent of maximal response to GIP(1-42)NH2, arithmetic mean) [%]
1.09 | 10.4 | CCCCCCCCCCCC(=O)N[C@@H](CCC(=O)NCCOCCOCC(=O)NCCOCCOCC(=O)NCCCC[C@H](NC(=O)[C@H](CCCN)NC(=O)[C@H](CC(=O)O)NC(=O)[C@H](CC(C)C)NC(=O)[C@](C)(CC(C)C)NC(=O)[C@@H](NC(=O)[C@H](CO)NC(=O)[C@H](Cc1ccncc1)NC(=O)[C@H](CC(=O)O)NC(=O)[C@H](CO)NC(=O)[C@@H](NC(=O)[C@](C)(Cc1ccccc1F)NC(=O)[C@@H](NC(=O)CNC(=O)[C@H](CCC(=O)O)NC(=O)C(C)(C)NC(=O)[C@@H](N)Cc1ccc(O)cc1)[C@@H](C)O)[C@@H](C)O)[C@@H](C)CC)C(=O)N[C@@H](C)C(=O)N[C@@H](CCC(N)=O)C(=O)NC(C)(C)C(=O)N[C@@H](CCCCNC(=O)COCCOCCNC(=O)COCCOCCNC(=O)CC[C@H](NC(=O)CCCCCCCCCCC)C(=O)O)C(=O)N[C@@H](Cc1ccccc1)C(=O)N[C@H](C(=O)N[C@H](CCC(=O)O)C(=O)N[C@@](C)(Cc1ccc(O)cc1)C(=O)N[C@@H](CC(C)C)C(=O)N[C@H](C(=O)N[C@@H](CCC(=O)O)C(=O)NCC(=O)NCC(N)=O)[C@@H](C)CC)[C@@H](C)CC)C(=O)O [Example 295] (H-Y[Aib]EGT[αMePhe(2-F)]TSD[4Pal]SI[αMeL]LD[Orn]K([AEEA-AEEA-γGlu-Lauroyl])AQ[Aib]K([AEEA-AEEA-γGlu-Lauroyl])FI[dE][αMeY]LIEGG-NH2; N-terminus assumed) | > 9950 | > 9950 | 0.0141 | 109 | 0.167 |  |  |  |  |  |  |  | 
 |  | CC[C@H](C)[C@H](NC(=O)[C@H](CC(C)C)NC(=O)[C@](C)(Cc1ccc(O)cc1)NC(=O)[C@@H](CCC(=O)O)NC(=O)[C@@H](NC(=O)[C@H](Cc1ccc2ccccc2c1)NC(=O)[C@H](CCC(=O)O)NC(=O)C(C)(C)NC(=O)[C@H](CCC(N)=O)NC(=O)[C@H](C)NC(=O)[C@H](CCCCNC(=O)COCCOCCNC(=O)COCCOCCNC(=O)CC[C@H](NC(=O)CCCCCCCCCCCCC(=O)O)C(=O)O)NC(=O)[C@H](CCCN)NC(=O)[C@H](CC(=O)O)NC(=O)[C@H](CC(C)C)NC(=O)[C@](C)(CC(C)C)NC(=O)[C@@H](NC(=O)[C@H](CO)NC(=O)[C@H](Cc1ccncc1)NC(=O)[C@H](CC(=O)O)NC(=O)[C@H](CO)NC(=O)[C@@H](NC(=O)[C@](C)(Cc1ccccc1F)NC(=O)[C@@H](NC(=O)CNC(=O)[C@H](CCC(=O)O)NC(=O)C(C)(C)NC(=O)[C@@H](N)Cc1ccc(O)cc1)[C@@H](C)O)[C@@H](C)O)[C@@H](C)CC)[C@@H](C)CC)C(=O)N[C@@H](CCC(=O)O)C(=O)NCC(=O)NCC(=O)N[C@@H](CCCCNC(=O)COCCOCCNC(=O)COCCOCCNC(=O)CC[C@H](NC(=O)CCCCCCCCCCCCC(=O)O)C(=O)O)C(=O)N[C@@H](CO)C(=O)N[C@@H](CO)C(=O)NCC(=O)N[C@@H](C)C(=O)N1CCC[C@H]1C(=O)N1CCC[C@H]1C(=O)N1CCC[C@H]1C(=O)N[C@@H](CO)C(N)=O [Example 99] | > 9950 |  |  |  |  | > 9950 | 93.4 ± 1.02 | 81.1 |  |  |  |  | 
 |  | CC[C@H](C)[C@H](NC(=O)[C@H](CCCN)NC(=O)[C@H](CC(=O)O)NC(=O)[C@H](CC(C)C)NC(=O)[C@](C)(CC(C)C)NC(=O)[C@@H](NC(=O)[C@H](CO)NC(=O)[C@H](Cc1ccncc1)NC(=O)[C@H](CC(=O)O)NC(=O)[C@H](CO)NC(=O)[C@@H](NC(=O)[C@](C)(Cc1ccccc1F)NC(=O)[C@@H](NC(=O)CNC(=O)[C@H](CCC(=O)O)NC(=O)C(C)(C)NC(=O)[C@@H](N)Cc1ccc(O)cc1)[C@@H](C)O)[C@@H](C)O)[C@@H](C)CC)C(=O)N[C@@H](C)C(=O)N[C@@H](CCC(N)=O)C(=O)NC(C)(C)C(=O)N[C@@H](CCC(=O)O)C(=O)N[C@@H](Cc1ccccc1)C(=O)N[C@H](C(=O)N[C@H](CCC(=O)O)C(=O)N[C@@](C)(Cc1ccc(O)cc1)C(=O)N[C@@H](CC(C)C)C(=O)N[C@H](C(=O)N[C@@H](CCCCNC(=O)COCCOCCNC(=O)COCCOCCNC(=O)COCCOCCNC(=O)CC[C@H](NC(=O)CCCCCCCCCCCCC(=O)O)C(=O)O)C(=O)NCC(=O)NCC(=O)N1CCC[C@H]1C(=O)N[C@@H](CO)C(=O)N[C@@H](CO)C(=O)NCC(=O)N[C@@H](C)C(=O)N1CCC[C@H]1C(=O)N1CCC[C@H]1C(=O)N1CCC[C@H]1C(=O)N[C@@H](CO)C(=O)N[C@@H](CCCCNC(=O)COCCOCCNC(=O)COCCOCCNC(=O)COCCOCCNC(=O)CC[C@H](NC(=O)CCCCCCCCCCCCC(=O)O)C(=O)O)C(N)=O)[C@@H](C)CC)[C@@H](C)CC [Example 229] (H-Y[Aib]EGT[αMePhe(2-F)]TSD[4Pal]SI[αMeL]LD[Orn]IAQ[Aib]EFI[dE][αMeY]LIK([AEEA-AEEA-AEEA-γGlu-C14 diacid])GGPSSGAPPPSK([AEEA-AEEA-AEEA-γGlu-C14 diacid])-NH2) | > 9950 |  |  |  |  | > 9950 |  | 99 | 80.5 | 0.0253 | 94.3 | 2.25 | 
 |  | CC[C@H](C)[C@H](NC(=O)[C@H](CCCN)NC(=O)[C@H](CC(=O)O)NC(=O)[C@H](CC(C)C)NC(=O)[C@](C)(CC(C)C)NC(=O)[C@@H](NC(=O)C(C)(C)NC(=O)[C@H](Cc1ccc(O)cc1)NC(=O)[C@H](CC(=O)O)NC(=O)[C@H](CO)NC(=O)[C@@H](NC(=O)[C@](C)(Cc1ccccc1F)NC(=O)[C@@H](NC(=O)CNC(=O)[C@H](CCC(=O)O)NC(=O)C(C)(C)NC(=O)[C@@H](N)Cc1ccc(O)cc1)[C@@H](C)O)[C@@H](C)O)[C@@H](C)CC)C(=O)N[C@@H](C)C(=O)N[C@@H](CCC(N)=O)C(=O)NC(C)(C)C(=O)N[C@@H](CCCCNC(=O)COCCOCCNC(=O)CC[C@H](NC(=O)CCCCCCCCCCCCC(=O)O)C(=O)O)C(=O)N[C@@H](Cc1ccccc1)C(=O)N[C@H](C(=O)N[C@H](CCC(=O)O)C(=O)N[C@@](C)(Cc1ccc(O)cc1)C(=O)N[C@@H](CC(C)C)C(=O)N[C@H](C(=O)N[C@@H](CCCCNC(=O)COCCOCCNC(=O)CC[C@H](NC(=O)CCCCCCCCCCCCC(=O)O)C(=O)O)C(=O)NCC(=O)NCC(=O)N1CCC[C@H]1C(=O)N[C@@H](CO)C(=O)N[C@@H](CO)C(=O)NCC(=O)N[C@@H](C)C(=O)N1CCC[C@H]1C(=O)N1CCC[C@H]1C(=O)N1CCC[C@H]1C(=O)N[C@@H](CO)C(N)=O)[C@@H](C)CC)[C@@H](C)CC [Example 370] (H-Y[Aib]EGT[αMePhe(2-F)]TSDY[Aib]I[αMeL]LD[Orn]IAQ[Aib]K([AEEA-γGlu-C14 diacid])FI[dE][αMeY]LIK([AEEA-γGlu-C14 diacid])GGPSSGAPPPS-NH2) |  | > 9950 | 0.0282 | 112 | 0.402 |  |  |  |  |  |  |  | 105
